# Tests used:
# lung arginase [1] = test: Lung arginase activity after intratracheal NOHA in IL-4 lung transgenic mice; assay type: in vivo; conditions: IL-4 transgenic mice, intratracheal NOHA 10 and 100 mcg, measured 4 hrs later, FIG. 11B
# Experimental: (§1) FIGS. 11A and 11B are line graphs showing the results of treating lung lysates with N(omega)-hydroxy-L-arginine (NOHA). FIG. 11A illustrates in vitro treatment of lung lysates from […] with NOHA. FIG. 11B illustrates in vitro treatment of transgenic mice that overexpress interleukin 4 with NOHA.
# (§2) Arginase activity was measured using the blood urea nitrogen reagent (Sigma Chemical Company, St. Louis, Mo.) according to established techniques as exemplified in Wei, L. H., et al., Proc Natl Acad Sci USA 98, 9260-4. (2001); Li, H. et al. Am J Physiol Regul Integr Comp Physiol 282, R64-R69. (2002); Wei, L. H. et al., Am J Physiol Cell Physiol 279, C248-56. (2000). To measure levels of putrescine following acid extraction, ion-pair reverse phase high performance liquid chromatography was performed.
# (§3) IL-4 lung transgenic mice, which have markedly elevated level of lung arginase mRNA and activity, were used to examine the effect of NOHA in vitro and in vivo (FIG. 11). In FIG. 11A, lung lysates from IL-4 lung transgenic mice were incubated with NOHA and the arginase activity at different doses of NOHA (x axis) and arginine is shown. In FIG. 11B, IL-4 transgenic mice were treated with intratracheal NOHA (two doses: 10 and 100 mcg) and the arginase activity in the lungs was measured 4 hrs later.
# [2] = tested on: IL4/IL5 lung transgenic mice; test: Airway hyperresponsiveness to methacholine (Penh, barometric plethysmography) after intratracheal NOHA; assay type: in vivo; conditions: intratracheal NOHA 100 mcg, Penh recorded 4 hrs later, Example 20, FIG. 12
# Experimental: FIG. 12 is a line graph showing the results of airway hyperreactivity measurements (recorded as Penh) in asthmatic mice (IL4/IL5 bitransgenic lung mice) treated with intratracheal NOHA. Airway reactivity to methacholine was assessed in conscious, unrestrained mice by barometric plethysmography, using apparatus and software supplied by Buxco (Troy, N.Y.). This system yields a dimensionless parameter known as enhanced pause (Penh), reflecting changes in wave-form of the pressure signal from the plethysmography chamber combined with a timing comparison of early and late expiration, which can be used to empirically monitor airway function. […]
# lung arginase [3] = test: Arginase activity in lung lysates incubated with NOHA in vitro (blood urea nitrogen reagent); assay type: biochemical, mice
# Experimental: as §1, §2, §3
# asthma = test: Treatment of individual suffering from asthma with anti-arginase compound (inhalation); assay type: in vivo; conditions: inhalation of therapeutically effective amount
# From the text: An individual suffering from asthma is identified. The individual is provided with a therapeutically effective amount of N(omega)-hydroxy-L-arginine to reduce the indications of asthma.
smiles,measurement,setting,value
"N=C(NO)NCCC[C@H](N)C(=O)O [NOHA, N(omega)-hydroxy-L-arginine]",arginase activity in the lungs,lung arginase [1],effective to reduce arginase activity
same,development of allergen-induced airway hyperresponsiveness (Penh),[2],blocks the development of allergen-induced airway hyperesponsiveness
same,arginase activity in lung lysates,"lung arginase [3]; lung lysates from IL-4 lung transgenic mice incubated with different doses of NOHA and arginine, FIG. 11A",effective to reduce arginase activity in lung lysates
same,arginase activity in the asthmatic lung,lung arginase [3]; summary statement referring to Example 15,blocks arginase activity in the asthmatic lung
same,asthma symptoms,asthma,asthma symptoms are reduced

# — patent US7879547B2, “Method of detecting the presence of asthma or allergies in a patient” (Children's Hospital Medical Center, priority 2002, dated 2011)
